Legend:
Assay in all cases: normalised response (% of control), CellTox Green; higher = less cell death (100 = DMSO, 0 = benzethonium chloride kill control)
Conditions in all cases: incubation time: 72 h
MCF-10A = tested on: MCF-10A
Procedure, shortened: (§1)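 The table gives the normalised signal for a single concentration in each entry. Breast cancer cell lines were seeded (20 µl suspension) into 384-well plates holding compound at 5 concentrations in 10-fold steps over a compound-specific 10,000-fold range and incubated 72 h, then read for CellTox Green fluorescence (485/520 nm) and CellTiter-Glo luminescence. Normalisation on each plate used 0.1 % DMSO (100) and a positive kill control (0).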

Hs578T = tested on: Hs578T
Procedure, shortened: as §1

BT-549 = tested on: BT-549
Procedure, shortened: as §1

| SMILES | normalised response (MCF-10A) | normalised response (Hs578T) | normalised response (BT-549) |
| --- | --- | --- | --- |
| CN(N=O)C(=O)N[C@@H](C=O)[C@@H](O)[C@H](O)[C@H](O)CO [Streptozocin] (1000 nM) | 53.9% | 99% | 99.5% |
| CNCc1ccc(-c2[nH]c3cc(F)cc4c3c2CCNC4=O)cc1 [Rucaparib] (1000 nM) | 84.3% | 110% | 115% |
| O=C1CCC(N2C(=O)c3ccccc3C2=O)C(=O)N1 (stereo unspecified) [Thalidomide] (10000 nM) | 99% | 63.3% | 99.3% |
| Oc1nc(-c2ccc(C(F)(F)F)cc2)nc2c1CSCC2 [XAV-939] (10000 nM) | 103% | 65.4% | 104% |
| O=P1(NCCCl)OCCCN1CCCl (stereo unspecified) [Ifosfamide] (10000 nM) |  | 54.2% | 77.5% |
| C=C(c1ccc(C(=O)O)cc1)c1cc2c(cc1C)C(C)(C)CCC2(C)C [Bexarotene] (1000 nM) | 85% |  | 98.8% |
| C#Cc1cccc(Nc2ncnc3cc(OCCOC)c(OCCOC)cc23)c1 [Erlotinib] (1000 nM) | 69.5% | 99.5% | 96.5% |
| Clc1ccc(Nc2nnc(Cc3ccncc3)c3ccccc23)cc1 [Vatalanib] (10000 nM) | 55.9% | 78.7% | 118% |
| C[C@@H](Oc1cc(-c2cnn(C3CCNCC3)c2)cnc1N)c1c(Cl)ccc(F)c1Cl [Crizotinib] (1000 nM) | 95.9% | 103% | 131% |
| Cc1ccc(C(=O)Nc2ccc(CN3CCN(C)CC3)c(C(F)(F)F)c2)cc1C#Cc1cnc2cccnn12 [Ponatinib] (100 nM) | 72.1% |  | 92% |
| CCC1(c2ccc(N)cc2)CCC(=O)NC1=O (stereo unspecified) [Aminoglutethimide] (10000 nM) | 102% | 127% | 104% |
| CN[C@@H]1C[C@H]2O[C@@](C)([C@@H]1OC)n1c3ccccc3c3c4c(c5c6ccccc6n2c5c31)C(=O)N[C@H]4O [UCN-01] (1000 nM) | -24.5% | 47.3% | 78.7% |
| Cc1ccc(C(=O)N(CCCN)[C@@H](c2oc3cc(Cl)ccc3c(=O)c2Cc2ccccc2)C(C)C)cc1 (100 nM) | 80% |  | 91.1% |
| Cn1c(CCCC(=O)O)nc2cc(N(CCCl)CCCl)ccc21 [Bendamustine] (10000 nM) | 95.4% |  | 118% |
| CN[C@@H]1C[C@H]2O[C@@](C)([C@@H]1OC)n1c3ccccc3c3c4c(c5c6ccccc6n2c5c31)C(=O)N[C@H]4O [UCN-01] (10000 nM) | -57.5% | -27.6% | 43.8% |
| CCC1=C[C@@H]2CN(C1)Cc1c([nH]c3ccccc13)[C@@](C(=O)OC)(c1cc3c(cc1OC)N(C)[C@H]1[C@@](O)(C(=O)OC)[C@H](OC(C)=O)[C@]4(CC)C=CCN5CC[C@]31[C@@H]54)C2 [Vinorelbine] (1000 nM) | 26.6% | 27.5% | 63.8% |
| Oc1nc(-c2ccc(C(F)(F)F)cc2)nc2c1CSCC2 [XAV-939] (1000 nM) | 67.7% | 88.9% | 106% |
| Cn1c(Nc2ccc(C(F)(F)F)cc2)nc2cc(Oc3ccnc(-c4ncc(C(F)(F)F)[nH]4)c3)ccc21 [RAF265] (100 nM) | 107% | 107% |  |
| C#Cc1cccc(Nc2ncnc3cc(OCCOC)c(OCCOC)cc23)c1 [Erlotinib] (10000 nM) | 104% | 64.7% | 95.8% |
| COc1cc([C@@H]2c3cc4c(cc3[C@@H](O[C@@H]3O[C@@H]5CO[C@@H](C)O[C@H]5[C@H](O)[C@H]3O)[C@H]3COC(=O)[C@H]23)OCO4)cc(OC)c1O [Etoposide] (1000 nM) | 110% |  | 109% |
| Cc1ccc(-n2nc(C(C)(C)C)cc2NC(=O)Nc2ccc(OCCN3CCOCC3)c3ccccc23)cc1 [Doramapimod] (1000 nM) | 101% | 82.6% | 93.2% |

From the supplement of paper PMC4862054
